In ChEMBL document CHEMBL1201862, “PubChem BioAssay data set” (2004):
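Cultured in 96-well plates, cells were exposed to test compound for 48 hours across five concentrations. Abbreviation: GI50, concentration required for 50% inhibition of growth.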 Active and inactive are the calls of the source. No stated cut-off is given here; in the data, active = GI50 up to about 1.1 µM and inactive = higher.

Experiments:
Assay in all cases: inhibition of tumour cell growth, NCI panel, 48 h
[1] = tested on: A498
[2] = tested on: CCRF-CEM
[3] = tested on: HOP-62
[4] = tested on: IGROV-1
[5] = tested on: K562
[6] = tested on: MCF7
[7] = tested on: MDA-MB-231
[8] = tested on: MDA-MB-435
[9] = tested on: MDA-N
[10] = tested on: NCI-H23
[11] = tested on: OVCAR-3
[12] = tested on: OVCAR-5
[13] = tested on: RPMI-8226
[14] = tested on: SF-268
[15] = tested on: SF-539
[16] = tested on: SNB-75
[17] = tested on: UACC-62
[18] = tested on: UO-31
[19] = tested on: CAKI-1

Row | SMILES | GI50 [1] | GI50 [2] | GI50 [3] | GI50 [4] | GI50 [5] | GI50 [6] | GI50 [7] | GI50 [8] | GI50 [9] | GI50 [10] | GI50 [11] | GI50 [12] | GI50 [13] | GI50 [14] | GI50 [15] | GI50 [16] | GI50 [17] | GI50 [18] | GI50 [19]
1 | CC(C)(C)NC(=O)[C@H]1CC[C@H]2[C@@H]3CC=C4NC(=O)CC[C@]4(C)[C@H]3CC[C@]12C | > 100 µM (inactive) | > 100 µM (inactive) | > 100 µM (inactive) | > 100 µM (inactive) | > 100 µM (inactive) | 32.4 µM (inactive) | 29.3 µM (inactive) | > 100 µM (inactive) | > 100 µM (inactive) | 52 µM (inactive) | > 100 µM (inactive) | > 100 µM (inactive) | > 100 µM (inactive) | 54.6 µM (inactive) | > 100 µM (inactive) | 22.6 µM (inactive) | > 100 µM (inactive) | > 100 µM (inactive) | 
2 | COC(COC(=O)N1CCN(C=O)CC1)C1=C(N2CC2)C(=O)C(C)=C(N2CC2)C1=O (stereo not given) | 1.51 µM (inactive) | 0.13 µM (active) | 0.191 µM (active) | 0.271 µM (active) | 0.462 µM (active) | 0.0313 µM (active) | 2.29 µM (inactive) | 0.424 µM (active) | 0.248 µM (active) | 0.0675 µM (active) | 0.656 µM (active) | 2.56 µM (inactive) | 0.362 µM (active) | 0.12 µM (active) | 0.0632 µM (active) |  | 0.169 µM (active) | 0.486 µM (active) | 0.12 µM (active)
3 | O=C(/C=C/c1ccc2c(c1)OCO2)Cc1nc2ncccc2[nH]c1=O | > 100 µM (inactive) | > 100 µM (inactive) | 39 µM (inactive) | 94.6 µM (inactive) | 5.55 µM (inactive) | > 100 µM (inactive) | > 100 µM (inactive) | > 100 µM (inactive) | > 100 µM (inactive) | > 100 µM (inactive) | > 100 µM (inactive) | > 100 µM (inactive) | > 100 µM (inactive) | 49.7 µM (inactive) | 53.7 µM (inactive) |  | 9.53 µM (inactive) | > 100 µM (inactive) | > 100 µM (inactive)
4 | COc1ccc(N2C(=O)/C(=C/c3ccc(N(CCC#N)CCC#N)cc3)N=C2c2ccccc2)c(OC)c1 |  | 21.9 µM (inactive) |  | > 100 µM (inactive) | 18.1 µM (inactive) | 61.7 µM (inactive) | > 100 µM (inactive) | > 100 µM (inactive) | > 100 µM (inactive) | 60.3 µM (inactive) | 98.4 µM (inactive) | > 100 µM (inactive) | 29 µM (inactive) | > 100 µM (inactive) | 40.4 µM (inactive) | 89.5 µM (inactive) | > 100 µM (inactive) | > 100 µM (inactive) | > 100 µM (inactive)
5 | CN(C)CCNC(=O)c1cccc2c(NC(CCCNC(=N)N)C(=O)O)c3ccccc3[n+](C)c12 (stereo not given) | > 100 µM (inactive) |  | 68.1 µM (inactive) | 59 µM (inactive) | > 100 µM (inactive) | 45.4 µM (inactive) | 37.1 µM (inactive) | > 100 µM (inactive) | 61.5 µM (inactive) | > 100 µM (inactive) | > 100 µM (inactive) | > 100 µM (inactive) | > 100 µM (inactive) | 29 µM (inactive) | 83.8 µM (inactive) | 28.1 µM (inactive) | > 100 µM (inactive) | > 100 µM (inactive) | 
6 | O=C(O)CCc1nc2cc3ccccc3cc2[nH]c1=O | > 100 µM (inactive) | > 100 µM (inactive) | > 100 µM (inactive) | > 100 µM (inactive) | > 100 µM (inactive) | 65.6 µM (inactive) | > 100 µM (inactive) | > 100 µM (inactive) | > 100 µM (inactive) | > 100 µM (inactive) | > 100 µM (inactive) | > 100 µM (inactive) |  | > 100 µM (inactive) | > 100 µM (inactive) | > 100 µM (inactive) | > 100 µM (inactive) | > 100 µM (inactive) | > 100 µM (inactive)
7 | Cc1c(-c2ccccc2)[nH]c2cn[nH]c(=O)c12 | > 100 µM (inactive) | 57.1 µM (inactive) | 50.9 µM (inactive) | > 100 µM (inactive) | 99.8 µM (inactive) | 45.1 µM (inactive) | > 100 µM (inactive) | > 100 µM (inactive) | > 100 µM (inactive) | > 100 µM (inactive) | 39.6 µM (inactive) | > 100 µM (inactive) | 74 µM (inactive) | > 100 µM (inactive) | > 100 µM (inactive) |  | 59.2 µM (inactive) | 80 µM (inactive) | > 100 µM (inactive)
8 | C=C(C)C1CC=C(C)C(=O)C1 (stereo not given) [CARVONE] |  | > 100 µM (inactive) | > 100 µM (inactive) | > 100 µM (inactive) | > 100 µM (inactive) | > 100 µM (inactive) | > 100 µM (inactive) | > 100 µM (inactive) | > 100 µM (inactive) | > 100 µM (inactive) | > 100 µM (inactive) | > 100 µM (inactive) | > 100 µM (inactive) | > 100 µM (inactive) | > 100 µM (inactive) | > 100 µM (inactive) |  | > 100 µM (inactive) | > 100 µM (inactive)
9 | N#CCCN(CCCN(C(=O)Nc1ccccc1)c1ccccc1)C(=O)Nc1ccccc1 |  | 33.7 µM (inactive) | > 100 µM (inactive) | > 100 µM (inactive) | 54.3 µM (inactive) | 84.5 µM (inactive) | > 100 µM (inactive) | > 100 µM (inactive) | > 100 µM (inactive) | 61.7 µM (inactive) | > 100 µM (inactive) | > 100 µM (inactive) | 53 µM (inactive) |  | > 100 µM (inactive) | 44.8 µM (inactive) | > 100 µM (inactive) | 58.3 µM (inactive) | 15 µM (inactive)
10 | Nc1ccc2c(c1)S(=O)(=O)c1cc(O)ccc1O2 | 31.2 µM (inactive) | > 100 µM (inactive) | > 100 µM (inactive) | > 100 µM (inactive) | > 100 µM (inactive) | > 100 µM (inactive) | > 100 µM (inactive) | > 100 µM (inactive) | > 100 µM (inactive) | > 100 µM (inactive) | > 100 µM (inactive) | > 100 µM (inactive) |  | > 100 µM (inactive) | > 100 µM (inactive) |  | > 100 µM (inactive) | 55.3 µM (inactive) | 45.2 µM (inactive)
11 | CC[C@H]1C=CCC[C@@]2(C[C@@H]3CC[C@@H]4[C@H](C(=O)OCCCCCCCCCCCCCCCC(=O)N(CCCNC(C)=O)C[C@H](CCNC(C)=O)OC(C)=O)[C@]5(CCC[C@@H](C)O5)NC(=[N+]34)N2)O1 | 0.435 µM (active) | 0.00184 µM (active) | 0.494 µM (active) | 0.0583 µM (active) | 0.168 µM (active) | 0.0861 µM (active) | 0.0914 µM (active) | 0.0432 µM (active) | 0.0466 µM (active) | 0.583 µM (active) | 0.158 µM (active) | 0.0557 µM (active) | 0.0312 µM (active) | 0.187 µM (active) | 0.26 µM (active) |  | 0.0752 µM (active) | 1.2 µM (inactive) | 0.561 µM (active)
12 | CCC1(O)CC(OC2CC(N(C)C)C(OC3CC(O)C(OC4OC(C)C(=O)C=C4N)C(C)O3)C(C)O2)c2c(cc3c(c2O)C(=O)c2c(O)cccc2C3=O)C1C(=O)OC (stereo not given) |  | 0.00169 µM (active) | 0.0184 µM (active) | 0.00302 µM (active) | < 0.001 µM (active) | 0.01 µM (active) | 0.29 µM (active) | 0.00583 µM (active) | 0.00682 µM (active) | 0.104 µM (active) | 0.129 µM (active) | 0.0678 µM (active) | 0.00153 µM (active) | 0.199 µM (active) | 0.0501 µM (active) | 0.0402 µM (active) | 0.0121 µM (active) | 0.167 µM (active) | 0.00604 µM (active)
13 | O=C(CCN1CCOCC1)Nc1ccc2sc3ccccc3c(=O)c2n1 |  | 19.7 µM (inactive) | 44.7 µM (inactive) | 30.1 µM (inactive) | 8.49 µM (inactive) | 49.8 µM (inactive) | 35.6 µM (inactive) | 42.4 µM (inactive) | 23.3 µM (inactive) | 49.1 µM (inactive) | 47.9 µM (inactive) | > 100 µM (inactive) | 28 µM (inactive) | 52.2 µM (inactive) | 60.5 µM (inactive) | 19.6 µM (inactive) | 34.8 µM (inactive) | 25.8 µM (inactive) | 23.6 µM (inactive)
14 | CCOC(=O)c1nc2ccccc2nc1Nc1cc(OC)c(OC)c(OC)c1 |  | > 100 µM (inactive) | > 100 µM (inactive) | > 100 µM (inactive) | > 100 µM (inactive) | > 100 µM (inactive) | > 100 µM (inactive) | > 100 µM (inactive) | > 100 µM (inactive) | > 100 µM (inactive) | > 100 µM (inactive) | > 100 µM (inactive) | > 100 µM (inactive) | > 100 µM (inactive) | > 100 µM (inactive) | 43.6 µM (inactive) | > 100 µM (inactive) | > 100 µM (inactive) | > 100 µM (inactive)
15 | COc1cc(C2SCC(=O)N2c2ccc(NC(=O)c3ccc(N4C(=O)CSC4c4cc(OC)c(OC)c(OC)c4)cc3)cc2)cc(OC)c1OC (stereo not given) |  | 45.5 µM (inactive) | 76.4 µM (inactive) | 32.4 µM (inactive) | 37.9 µM (inactive) | 43.3 µM (inactive) | > 100 µM (inactive) | 20.6 µM (inactive) | 23.1 µM (inactive) | 49.4 µM (inactive) | 37.1 µM (inactive) | 95.1 µM (inactive) | 28.9 µM (inactive) | 81.3 µM (inactive) | 42.7 µM (inactive) | 22.2 µM (inactive) | 24.9 µM (inactive) | 67.1 µM (inactive) | > 100 µM (inactive)
